One experiment concerns the target T1, SYK (Homo sapiens, UniProt P43405).
T1 construct: Purified human, full-length SYK, KDR; purchased Carna Biosciences
Nature of the experiment: Kinase inhibition assay, SYK.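 Further: purified full-length human SYK pre-incubated 30 min with compound, then ULight-TK peptide phosphorylation for 1 h, detected with Europium-labeled antibody in Lance buffer.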 In kind it is biochemical. Conditions: biochemical potency.

In a further experiment the target is T2, KDR (Homo sapiens, UniProt P35968).
T2 construct: Purified human, full-length SYK, KDR; purchased Carna Biosciences
The experiment in a line: Kinase inhibition assay, KDR.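 Further: purified full-length human KDR, 30 min preincubation with compound, then 1 h reaction with ATP and Ulight-Jak1 peptide substrate, phosphorylation read by Lance Europium antibody detection.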 It counts as biochemical. The following applies: biochemical potency.

The test system of experiment [1] is H1975 (EGFR L858R/T790M mutant). Nature of the experiment: Cell viability assay, H1975.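 On all read-outs here: NSCLC cells whose survival relies on EGFR L858R/T790M, exposed 72 h to serially diluted compound, ATP-based viability readout, with the H2073 line (wildtype EGFR dependent) as wildtype comparator.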 In kind it is cell-based. Conditions: for pIC50: Homo sapiens, NCI-H1975, cellular potency, 72-hour incubation, ATPLite, read-out: EGFR Mutants H1975; for Selectivity over wildtype, Wildtype vs mutant H2073/H1975 (fold): cellular potency ratio. (ATP-based viability assays read luminescence as a measure of living cells.)

The next experiment addresses T3, p-EGFR wildtype (Homo sapiens, UniProt P00533).
T3 construct: endogenous in cells; host or cells: H1299
The experiment in a line: Western analysis, H1299 p-EGFR wildtype. In kind it is cell-based. Conditions: molecular potency; 4 hours; 3 nM EGF ligand.

In experiment [2] the test system is PC9 (EGFR del E746-A750 mutant). Nature of the experiment: Cell viability assay, PC9.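 On all read-outs here: NSCLC PC9 cells, whose viability relies on EGFR del E746-A750, exposed to serially diluted compound for 72 h at 37 °C, ATPLite read-out, IC50, H2073 as EGFR wildtype line.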 In kind it is cell-based. The following applies: for Selectivity over wildtype, Wildtype vs mutant H2073/PC9 (fold): cellular potency ratio; for pIC50: cellular potency, 72-hour incubation, ATPLite, read-out: EGFR Mutants PC9.
In the next experiment the target is T4, p-EGFR del E746-A750 (Homo sapiens, UniProt P00533, DEL746-750).
T4 construct: phosphorylation of mutant EGFR in NSCLC lines PC9; endogenous in cells; host or cells: PC9
Nature of the experiment: Western analysis, PC9 p-EGFR del E746-A750. In kind it is cell-based. The following applies: for Selectivity over wildtype: p-wildtype over p-EGFR del19: H1299 vs PC9; for pIC50: molecular potency, 4 hours, read-out: PC9 p-EGFR del 19 (E746-A750).

Another experiment deals with T5, EGFR mutant L858R/T790M (Homo sapiens, UniProt P00533, L858R/T790M).
T5 construct: truncated human JAK3, EGFR mutants such as del E746-A750; purchased Carna Biosciences
Nature of the experiment: Kinase inhibition assay, EGFR L858R/T790M.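 Further: truncated human enzyme preincubated two hours with compound, then one hour with one millimolar ATP and ULight-PolyGT peptide, Europium-labeled antibody detection, IC50.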 It counts as biochemical. Conditions: read-out: EGFR mutants L858R/T790M.

For experiment [3], the target named is T6, EGFR mutant Del19 (E746-A750) (Homo sapiens, UniProt P00533, DEL746-750).
T6 construct: truncated human JAK3, EGFR mutants such as del E746-A750; purchased Carna Biosciences
The experiment in a line: Kinase inhibition assay, EGFR del E746-A750.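 Further: truncated human EGFR mutant kinase, two-hour preincubation with compound, then one-hour reaction with ATP and ULight-PolyGT peptide, LANCE Europium-antibody phosphorylation readout, IC50.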 In kind it is biochemical. The following applies: read-out: EGFR mutants Del19 (E746-A750).

The target in the next experiment is T7, EGFR mutant T790M (Homo sapiens, UniProt P00533, T790M).
T7 construct: truncated human JAK3, EGFR mutants such as del E746-A750; purchased Carna Biosciences
The experiment in a line: Kinase inhibition assay, EGFR mutant T790M.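 Further: truncated human EGFR mutant enzyme preincubated two hours with compound, then ATP plus ULight-PolyGT peptide for one hour, Europium-labeled antibody LANCE detection, IC50.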 The following applies: biochemical potency.

A further experiment addresses T8, EGFR mutant L858R (Homo sapiens, UniProt P00533, L858R).
T8 construct: truncated human JAK3, EGFR mutants such as del E746-A750; purchased Carna Biosciences
The experiment in a line: Kinase inhibition assay, EGFR L858R.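 Further: truncated human EGFR L858R kinase with compound preincubation, ULight-PolyGT peptide phosphorylation read by Europium-antibody Lance detection, IC50.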 In kind it is biochemical. Conditions: read-out: EGFR mutants L858R.

Another experiment concerns the target T9, JAK3 (Homo sapiens, UniProt P52333).
T9 construct: EGFR and JAK3 (JH1domain-catalytic) kinases, and mutant forms thereof; purchased Carna Biosciences
Nature of the experiment: Kinase inhibition assay, JAK3.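 Further: IC50 against purified truncated human JAK3 preincubated with compound, then reacted with ATP and ULight-Jak1 peptide, phosphorylation read by Europium-labeled antibody LANCE detection.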 The following applies: biochemical potency.

A further experiment has as its target T10, EGFR mutant Del19/T790M (Homo sapiens, UniProt P00533, DEL746-750/T790M).
T10 construct: truncated human JAK3, EGFR mutants such as del E746-A750; purchased Carna Biosciences
The experiment in a line: Kinase inhibition assay, EGFR del E746-A750/T790M. In kind it is biochemical. The following applies: read-out: EGFR mutants Del19/T790M.

Another experiment concerns the target T11, p-EGFR L858R/T790M (Homo sapiens, UniProt P00533, L858R/T790M).
T11 construct: phosphorylation of mutant EGFR in NSCLC lines H1975; endogenous in cells; host or cells: H1975
Nature of the experiment: Western analysis, H1975 p-EGFR L858R/T790M. In kind it is cell-based. Conditions: for Selectivity over wildtype: p-wildtype over p-EGFR L858R, T790M: H1299 vs H1975; for pIC50: molecular potency, 4 hours.

The next experiment deals with H2073 (EGFR wildtype). Nature of the experiment: Cell viability assay, H2073.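 Further: NSCLC cell line whose survival relies on wildtype EGFR, treated with serially diluted compound, cytotoxic effect judged from remaining cell viability.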 In kind it is cell-based. Conditions: NCI-H2073; cellular potency; 72-hour incubation; ATPLite.

Structures are written as SMILES. pIC50: −log10 of the molar value.

T7 sequence (P00533 669-1210 T790M limits assumed): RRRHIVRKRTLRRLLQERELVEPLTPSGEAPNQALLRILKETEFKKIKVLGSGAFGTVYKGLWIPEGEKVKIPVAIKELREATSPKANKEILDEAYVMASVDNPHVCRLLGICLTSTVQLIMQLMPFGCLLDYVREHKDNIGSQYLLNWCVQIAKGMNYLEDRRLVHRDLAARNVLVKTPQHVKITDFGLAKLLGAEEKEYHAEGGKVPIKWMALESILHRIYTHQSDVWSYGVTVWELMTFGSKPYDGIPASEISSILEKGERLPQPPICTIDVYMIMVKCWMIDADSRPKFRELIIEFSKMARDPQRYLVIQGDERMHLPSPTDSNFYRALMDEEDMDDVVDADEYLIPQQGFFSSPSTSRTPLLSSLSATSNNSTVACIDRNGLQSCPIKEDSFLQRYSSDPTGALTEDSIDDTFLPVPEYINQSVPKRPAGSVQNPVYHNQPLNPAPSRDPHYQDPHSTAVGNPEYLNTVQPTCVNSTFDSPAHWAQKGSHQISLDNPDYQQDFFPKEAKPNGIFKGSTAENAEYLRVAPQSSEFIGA
T3 sequence (P00533 25-1210): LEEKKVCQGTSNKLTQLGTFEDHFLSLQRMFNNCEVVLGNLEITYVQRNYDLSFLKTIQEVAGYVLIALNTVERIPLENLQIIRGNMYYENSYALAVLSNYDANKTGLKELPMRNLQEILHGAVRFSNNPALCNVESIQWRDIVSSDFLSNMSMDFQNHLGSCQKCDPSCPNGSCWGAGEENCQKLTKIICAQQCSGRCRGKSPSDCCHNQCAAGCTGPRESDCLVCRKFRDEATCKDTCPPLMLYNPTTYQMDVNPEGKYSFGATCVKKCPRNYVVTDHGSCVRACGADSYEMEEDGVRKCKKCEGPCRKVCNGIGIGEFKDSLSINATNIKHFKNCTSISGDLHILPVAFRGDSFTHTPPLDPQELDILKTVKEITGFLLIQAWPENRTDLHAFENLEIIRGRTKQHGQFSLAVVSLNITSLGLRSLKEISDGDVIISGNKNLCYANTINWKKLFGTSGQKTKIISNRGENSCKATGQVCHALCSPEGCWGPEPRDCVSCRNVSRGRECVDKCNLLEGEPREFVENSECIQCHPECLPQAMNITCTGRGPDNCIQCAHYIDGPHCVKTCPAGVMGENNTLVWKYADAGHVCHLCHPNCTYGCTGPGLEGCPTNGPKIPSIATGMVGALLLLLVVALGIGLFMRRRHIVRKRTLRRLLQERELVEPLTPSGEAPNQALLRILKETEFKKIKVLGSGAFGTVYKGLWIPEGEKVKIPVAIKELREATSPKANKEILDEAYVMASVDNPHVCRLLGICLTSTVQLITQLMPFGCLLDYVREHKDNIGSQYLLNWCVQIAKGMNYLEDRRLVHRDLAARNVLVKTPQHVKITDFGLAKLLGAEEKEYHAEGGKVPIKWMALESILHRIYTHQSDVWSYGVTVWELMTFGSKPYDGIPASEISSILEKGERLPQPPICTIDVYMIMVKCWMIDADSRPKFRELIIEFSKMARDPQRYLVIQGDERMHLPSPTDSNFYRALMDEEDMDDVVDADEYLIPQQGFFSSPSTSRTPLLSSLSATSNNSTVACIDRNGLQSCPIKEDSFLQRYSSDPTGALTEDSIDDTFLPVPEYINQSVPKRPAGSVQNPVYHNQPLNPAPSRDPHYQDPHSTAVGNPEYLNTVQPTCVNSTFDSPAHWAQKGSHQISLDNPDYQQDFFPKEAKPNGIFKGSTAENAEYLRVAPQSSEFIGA
T4 sequence (P00533 with tags, fused parts or gaps DEL746-750): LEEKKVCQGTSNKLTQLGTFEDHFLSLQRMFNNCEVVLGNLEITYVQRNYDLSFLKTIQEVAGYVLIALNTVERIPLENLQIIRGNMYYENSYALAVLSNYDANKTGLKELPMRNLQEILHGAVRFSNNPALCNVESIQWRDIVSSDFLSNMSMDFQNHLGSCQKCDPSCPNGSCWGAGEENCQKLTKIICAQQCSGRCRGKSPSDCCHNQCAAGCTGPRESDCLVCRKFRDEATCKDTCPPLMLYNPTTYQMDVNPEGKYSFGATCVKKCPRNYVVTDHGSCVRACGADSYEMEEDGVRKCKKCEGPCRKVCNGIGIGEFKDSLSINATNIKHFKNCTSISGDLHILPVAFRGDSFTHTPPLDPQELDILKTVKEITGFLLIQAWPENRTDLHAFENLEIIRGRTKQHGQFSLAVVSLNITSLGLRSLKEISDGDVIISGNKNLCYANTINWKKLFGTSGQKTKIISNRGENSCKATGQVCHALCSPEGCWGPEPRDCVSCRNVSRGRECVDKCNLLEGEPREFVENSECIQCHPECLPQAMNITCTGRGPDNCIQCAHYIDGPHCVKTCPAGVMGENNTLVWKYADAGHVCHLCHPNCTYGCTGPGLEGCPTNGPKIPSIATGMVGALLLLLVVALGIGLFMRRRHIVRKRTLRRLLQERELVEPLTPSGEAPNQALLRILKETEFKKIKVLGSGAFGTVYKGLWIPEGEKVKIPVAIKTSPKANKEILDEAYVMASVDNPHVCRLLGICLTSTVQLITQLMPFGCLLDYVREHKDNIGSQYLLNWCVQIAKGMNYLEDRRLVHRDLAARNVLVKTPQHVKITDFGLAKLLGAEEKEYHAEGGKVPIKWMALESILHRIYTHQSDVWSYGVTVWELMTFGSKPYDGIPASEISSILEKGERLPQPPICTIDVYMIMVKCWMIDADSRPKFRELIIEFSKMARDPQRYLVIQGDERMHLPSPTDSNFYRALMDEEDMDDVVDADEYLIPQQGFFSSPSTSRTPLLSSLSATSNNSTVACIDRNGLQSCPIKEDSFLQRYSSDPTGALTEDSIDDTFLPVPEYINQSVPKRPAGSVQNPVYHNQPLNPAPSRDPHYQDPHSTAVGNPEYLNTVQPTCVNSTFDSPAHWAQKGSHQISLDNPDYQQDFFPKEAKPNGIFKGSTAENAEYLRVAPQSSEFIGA
T8 sequence (P00533 669-1210 L858R limits assumed): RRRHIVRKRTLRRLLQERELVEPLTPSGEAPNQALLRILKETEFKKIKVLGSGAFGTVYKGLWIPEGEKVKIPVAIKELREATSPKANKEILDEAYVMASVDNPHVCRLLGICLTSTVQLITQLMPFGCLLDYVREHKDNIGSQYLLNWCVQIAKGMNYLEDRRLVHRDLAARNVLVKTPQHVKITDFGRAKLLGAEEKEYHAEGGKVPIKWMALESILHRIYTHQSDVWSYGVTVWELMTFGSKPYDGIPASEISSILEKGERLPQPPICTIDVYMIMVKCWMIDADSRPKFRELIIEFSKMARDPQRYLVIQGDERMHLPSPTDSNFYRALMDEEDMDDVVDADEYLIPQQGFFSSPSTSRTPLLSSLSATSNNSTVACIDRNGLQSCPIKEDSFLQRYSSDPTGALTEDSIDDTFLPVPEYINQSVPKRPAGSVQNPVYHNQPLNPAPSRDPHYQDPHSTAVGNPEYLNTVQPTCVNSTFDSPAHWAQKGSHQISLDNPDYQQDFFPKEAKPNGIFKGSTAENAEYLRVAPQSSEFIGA
T10 sequence (P00533 with tags, fused parts or gaps DEL746-750/T790M limits assumed): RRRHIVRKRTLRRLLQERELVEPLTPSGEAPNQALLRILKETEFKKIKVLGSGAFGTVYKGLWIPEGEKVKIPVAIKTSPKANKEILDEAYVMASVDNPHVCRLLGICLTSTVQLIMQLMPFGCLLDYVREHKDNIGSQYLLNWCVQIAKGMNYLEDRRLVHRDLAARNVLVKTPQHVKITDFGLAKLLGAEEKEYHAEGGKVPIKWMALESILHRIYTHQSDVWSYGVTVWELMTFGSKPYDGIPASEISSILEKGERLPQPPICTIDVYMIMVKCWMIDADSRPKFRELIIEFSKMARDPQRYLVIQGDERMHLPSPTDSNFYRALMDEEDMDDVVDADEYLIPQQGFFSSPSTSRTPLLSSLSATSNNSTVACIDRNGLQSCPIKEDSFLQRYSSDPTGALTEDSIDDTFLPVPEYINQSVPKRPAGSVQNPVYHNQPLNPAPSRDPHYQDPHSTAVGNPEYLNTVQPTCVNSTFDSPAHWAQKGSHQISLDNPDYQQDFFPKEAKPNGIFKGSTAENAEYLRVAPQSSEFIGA
T6 sequence (P00533 with tags, fused parts or gaps DEL746-750 limits assumed): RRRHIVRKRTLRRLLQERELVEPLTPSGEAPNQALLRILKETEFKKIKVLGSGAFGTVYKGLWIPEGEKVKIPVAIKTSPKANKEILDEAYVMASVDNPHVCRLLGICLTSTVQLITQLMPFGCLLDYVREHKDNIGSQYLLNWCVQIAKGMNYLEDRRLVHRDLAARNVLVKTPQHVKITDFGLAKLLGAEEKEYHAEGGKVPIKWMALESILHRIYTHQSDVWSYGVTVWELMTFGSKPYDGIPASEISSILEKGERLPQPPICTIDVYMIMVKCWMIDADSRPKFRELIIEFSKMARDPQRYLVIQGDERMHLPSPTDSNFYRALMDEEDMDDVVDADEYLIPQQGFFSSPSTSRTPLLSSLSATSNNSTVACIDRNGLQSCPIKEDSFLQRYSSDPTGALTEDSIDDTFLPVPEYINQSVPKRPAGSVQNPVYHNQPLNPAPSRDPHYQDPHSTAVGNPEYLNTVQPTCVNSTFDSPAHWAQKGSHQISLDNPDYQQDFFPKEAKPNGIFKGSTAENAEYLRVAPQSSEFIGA
T5 sequence (P00533 669-1210 T790M/L858R limits assumed): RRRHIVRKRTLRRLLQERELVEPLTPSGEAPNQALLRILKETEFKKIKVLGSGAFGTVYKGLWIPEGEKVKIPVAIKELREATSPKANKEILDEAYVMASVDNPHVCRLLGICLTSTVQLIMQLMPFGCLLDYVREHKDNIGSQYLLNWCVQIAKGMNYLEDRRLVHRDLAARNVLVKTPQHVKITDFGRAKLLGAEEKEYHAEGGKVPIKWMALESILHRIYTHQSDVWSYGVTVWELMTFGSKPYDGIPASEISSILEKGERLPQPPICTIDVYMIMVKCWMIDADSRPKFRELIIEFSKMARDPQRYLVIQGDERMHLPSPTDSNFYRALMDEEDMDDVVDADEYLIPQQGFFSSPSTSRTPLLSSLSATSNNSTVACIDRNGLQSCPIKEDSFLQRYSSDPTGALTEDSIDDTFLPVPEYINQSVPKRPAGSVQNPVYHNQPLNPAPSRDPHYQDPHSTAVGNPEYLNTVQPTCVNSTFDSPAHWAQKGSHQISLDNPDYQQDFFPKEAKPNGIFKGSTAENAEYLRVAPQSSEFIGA

As for `C=CC(=O)Nc1cc(Nc2nccc(-n3cc(CN(C)C)c(C4CC4)n3)n2)c(OC)cc1N1CCOCC1` [Compound 74, N-(5-(4-(3-cyclopropyl-4-((dimethylamino)methyl)-1H-pyrazol-1-yl)pyrimidin-2-ylamino)-4-methoxy-2-morpholinophenyl)acrylamide], the pIC50 is 6.70 to 7.70 on SYK; under 6.00 at KDR; over 7.70 in experiment [1]; 6.00 to 6.70 against p-EGFR wildtype; over 7.70 in experiment [2]; over 7.70 on p-EGFR del E746-A750. Moreover, the pIC50 (on EGFR mutant L858R/T790M; in experiment [3]; on EGFR mutant T790M; on EGFR mutant L858R; on JAK3; on EGFR mutant Del19/T790M) was over 7.70 in each case. Besides, the pIC50 at p-EGFR L858R/T790M was over 7.70; in the experiment on H2073 (EGFR wildtype), under 6.00. In addition, the “Selectivity over wildtype, Wildtype vs mutant H2073/H1975 (fold)” value (“Selectivity … vs mutant H2073/H1975 (fold)” for short) in experiment [1] was over 200 fold. Moreover, in experiment [2], the “Selectivity over wildtype, Wildtype vs mutant H2073/PC9 (fold)” value (shortened to “Selectivity … vs mutant H2073/PC9 (fold)”) was over 200 fold. In addition, at p-EGFR del E746-A750, the “Selectivity over wildtype: p-wildtype over p-EGFR del19” value (from here on “Selectivity … over p-EGFR del19”) is reported as 101-200 fold. Also, the “Selectivity over wildtype: p-wildtype over p-EGFR L858R, T790M” value (“Selectivity … over p-EGFR L858R, T790M” below) at p-EGFR L858R/T790M is listed as 20-100 fold.
With `C=CC(=O)Nc1cc(Nc2nccc(-n3cc(CN(C)C)c(C)n3)n2)c(OC)cc1N1CCOCC1` [Compound 46, N-(5-(4-(4-((dimethylamino)methyl)-3-methyl-1H-pyrazol-1-yl)pyrimidin-2-ylamino)-4-methoxy-2-morpholinophenyl)acrylamide], the pIC50 on SYK is 6.00 to 6.70; against KDR, under 6.00; in experiment [1] it was 6.70 to 7.70; against p-EGFR wildtype, 6.70 to 7.70; in experiment [2], over 7.70; at p-EGFR del E746-A750, over 7.70. Besides, the pIC50 (on EGFR mutant L858R/T790M; in experiment [3]; against EGFR mutant T790M; at EGFR mutant L858R; against JAK3; at EGFR mutant Del19/T790M) was over 7.70 in each case. Moreover, the pIC50 against p-EGFR L858R/T790M was over 7.70; in the experiment on H2073 (EGFR wildtype), under 6.00. Also, in experiment [1], the “Selectivity … vs mutant H2073/H1975 (fold)” value is reported as 101-200 fold. Moreover, the “Selectivity … vs mutant H2073/PC9 (fold)” value in experiment [2] was over 200 fold. Also, the “Selectivity … over p-EGFR del19” value at p-EGFR del E746-A750 is 20-100 fold. Moreover, on p-EGFR L858R/T790M, the “Selectivity … over p-EGFR L858R, T790M” value is listed as 20-100 fold.
As for `C=CC(=O)Nc1cc(Nc2ncc(C)c(-n3cc(CN(C)C)c(C4CC4)n3)n2)c(OC)cc1N1CCOCC1` [Compound 122, N-(5-(4-(3-cyclopropyl-4-((dimethylamino)methyl)-1H-pyrazol-1-yl)-5-methylpyrimidin-2-ylamino)-4-methoxy-2-morpholinophenyl)acrylamide], the pIC50 on SYK was 6.70 to 7.70; against KDR, under 6.00; in [1] it was over 7.70; at p-EGFR wildtype, 6.00 to 6.70; in experiment [2], over 7.70; at p-EGFR del E746-A750 it was over 7.70. Moreover, the pIC50 (on EGFR mutant L858R/T790M; in [3]; against EGFR mutant T790M; on EGFR mutant L858R; against JAK3; at EGFR mutant Del19/T790M) was over 7.70 each time. The pIC50 against p-EGFR L858R/T790M is over 7.70; in the experiment with H2073 (EGFR wildtype), under 6.00. The “Selectivity … vs mutant H2073/H1975 (fold)” value in [1] is over 200 fold. Further, the “Selectivity … vs mutant H2073/PC9 (fold)” value in [2] is recorded as over 200 fold. Further, the “Selectivity … over p-EGFR del19” value on p-EGFR del E746-A750 is 20-100 fold. In addition, the “Selectivity … over p-EGFR L858R, T790M” value at p-EGFR L858R/T790M was 20-100 fold.

Source of the values: patent publication USRE50528E1, “Compounds and compositions for modulating EGFR mutant kinase activities” (Yuhan Corporation, priority 2014, dated 2025).
